Source: patent US20130035232A1, “INDUCTION AND STABILIZATION OF ENZYMATIC ACTIVITY IN MICROORGANISMS” (GEORGIA STATE UNIVERSITY RESEARCH FOUNDATION, INC., priority 2010, published 2013)

Legend:
asparaginase I [1] = experiment: 20 liter fermentation with asparagine feed: asparaginase I; type: cell-based, Rhodococcus sp. DAP 96253; conditions: end of 20 liter fermentation; asparagine 0.15M at 1000 μl/min from t=10 hour; FIG. 5
Procedure: Rhodococcus sp. DAP 96253 were grown using biphasic medium as the source of inoculum for a 20 liter fermentation. The supplemental addition of medium/carbohydrate (either YEMEA, dextrose or maltose) was made to the modified R2A medium, containing cottonseed hydrolysate substituted for the Proteos Peptone 3 (PP3). Asparagine (0.15M solution) was added at a continuous rate of 1000 μl/min beginning at t=10 hour. At the end of the fermentation run, 159 units per milligram cell dry weight of acrylonitrile specific nitrile hydratase, 22 units of amidase per milligram cell dry weight, and 16 g/l cell packed wet weight were produced.

asparaginase I [2] = experiment: Effect of inducer and media composition on asparaginase I production; type: cell-based, Rhodococcus sp. DAP 96253; conditions: Rhodococcus sp. DAP 96253, inducer 1000 ppm
Procedure: Testing was performed to evaluate the effect on asparaginase I activity based upon the inducer used. In particular, testing was performed using asparagine, glutamine, succinonitrile, and isovaleronitrile as inducers (all added at 1000 ppm each).

## NC(=O)C[C@H](N)C(=O)O [Asparagine, asparagine]
Asparaginase I [1]
  asparaginase I produced: 16 units per milligram cell dry weight
Asparaginase I [2]; YEMEA - Glucose, with cobalt
  Asparaginase I levels, YEMEA - Glucose With Cobalt: 6.5 units/mg cell dry weight
Asparaginase I [2]; YEMEA - Glucose, without cobalt
  Asparaginase I levels, YEMEA - Glucose Without Cobalt: 5.3 units/mg cell dry weight
Asparaginase I [2]; YEMEA - Maltose, with cobalt
  Asparaginase I levels, YEMEA - Maltose With Cobalt: 24.6 units/mg cell dry weight
Asparaginase I [2]; YEMEA - Maltose, without cobalt
  Asparaginase I levels, YEMEA - Maltose Without Cobalt: 8.7 units/mg cell dry weight
